Article PMC4182091, “A Common Minimal Motif for the Ligands of HLA-B*27 Class I Molecules” (PLoS ONE, 2014)
Ends that are not written are not given here.

How the values were obtained:
Assay type in all cases: cell-based
[1] = biological target: T1, HLA-B*2706 (Homo sapiens, UniProt P01889, A235G/D201E/E204Q/G107R/H137Y/K202T/N104T/N87E/Q56L/Q94K/R106L/R155S/R180L/S121N/S48T/Y33H/Y91C); test: HLA/peptide complex stability assay, RMA-S cells transfected with HLA-B*2706; settings: SD
T1 construct: expressed in transfected cells; host or cells: RMA-S (TAP-deficient murine cell line)

[2] = biological target: T2, HLA-B*2705 (Homo sapiens, UniProt P01889, D138H/D201E/E176V/E204Q/G107R/H137Y/K202T/N104T/N87E/Q56L/Q94K/R106L/R155S/R180L/S101D/S121N/S48T/Y140D/Y33H/Y91C); test: HLA/peptide complex stability assay, RMA-S cells transfected with HLA-B*2705; settings: SD
T2 construct: expressed in transfected cells; host or cells: RMA-S (TAP-deficient murine cell line)

[3] = biological target: T3, HLA-B*2709 (Homo sapiens, UniProt P01889, D138H/D201E/E176V/E204Q/G107R/H137Y/K202T/N104T/N87E/Q56L/Q94K/R106L/R155S/R180L/S101D/S121N/S48T/Y140H/Y33H/Y91C); test: HLA/peptide complex stability assay, RMA-S cells transfected with HLA-B*2709; settings: EC50, B*2709; SD
T3 construct: expressed in transfected cells; host or cells: RMA-S (TAP-deficient murine cell line)

[4] = biological target: T4, HLA-B*2701 (Homo sapiens, UniProt P01889, D138H/D201E/D98Y/E176V/E204Q/G107R/H137Y/K202T/L105A/N104T/N87E/Q56L/Q94K/R106L/R155S/R180L/S101N/S121N/S48T/Y140D/Y33H/Y91C); test: HLA/peptide complex stability assay, RMA-S cells transfected with HLA-B*2701; settings: SD
T4 construct: expressed in transfected cells; host or cells: RMA-S (TAP-deficient murine cell line)

[5] = biological target: T5, HLA-B*2703 (Homo sapiens, UniProt P01889, D138H/D201E/E176V/E204Q/G107R/H137Y/K202T/N104T/N87E/Q56L/Q94K/R106L/R155S/R180L/S101D/S121N/S48T/Y140D/Y33H/Y83H/Y91C); test: HLA/peptide complex stability assay, RMA-S cells transfected with HLA-B*2703; settings: EC50, B*2703; SD
T5 construct: expressed in transfected cells; host or cells: RMA-S (TAP-deficient murine cell line)

[6] = biological target: HLA-B*2704 (Homo sapiens, UniProt P01889, A235G/D138H/D201E/E204Q/G107R/H137Y/K202T/N104T/N87E/Q56L/Q94K/R106L/R155S/R180L/S121N/S48T/Y140D/Y33H/Y91C); test: HLA/peptide complex stability assay, RMA-S cells transfected with HLA-B*2704; settings: SD
[7] = biological target: HLA-B*2702 (Homo sapiens, UniProt P01889, D138H/D201E/E176V/E204Q/G107R/H137Y/K202T/L105A/N104I/N87E/Q56L/Q94K/R106L/R155S/R180L/S101N/S121N/S48T/Y140D/Y33H/Y91C); test: HLA/peptide complex stability assay, RMA-S cells transfected with HLA-B*2702; settings: EC50, B*2702; SD

Q: Which results are given for “RRAIATPGM [Flu PB1 238-246, reference compound]”?
A: EC50 [1]: 2 ± 1 µM; EC50 [2]: 3 ± 2 µM; EC50 [3]: 2 ± 1 µM; EC50 [4]: 5 ± 1 µM; EC50 [5]: 2 ± 1 µM; EC50 [6]: 9 ± 1 µM; EC50 [7]: 12 ± 4 µM
